Several values for one entry are separate records, joined by “and”; a condition that tells them apart may be missing. Equal values may be shown once. Where a name gives a salt, the structure may show the parent alone.
Tests used:
[1] = tested on: Secretion of Gastric Juice; experiment: Effect for Secretion of Gastric Juice (pylorus-ligated rats, Shay method); assay type: in vivo, male rats of SD strain; details: rat, 100 mg/Kg, into the duodenum; for Amount of gastric juice Vol. / Free Acid Output / Total Acid Output: 4 hours; for Amount of gastric juice Vol.: control 1.78 ± 0.26; for Free Acid Output: control 133.2 ± 32.7; for Total Acid Output: control 154.0 ± 36.0; for suppression of the amount of the gastric juice / suppression of the free acid output / suppression of the total acid output: vs control group
Method: (§1) The compounds to be tested were suspended in 5% serous gum arabic solution, so as to adjust their concentration to 0.5 ml/100 g B.W. for oral administration, or 0.2 ml/100 g B.W. for duodenum administration. Indomethacin, [1-(p-chlorobenzoyl)-5-methoxy-2-methylindole-3-acetic acid] for control was suspended in 5% serous gum arabic solution, so as to adjust its concentration to 0.5 ml/100 g B.W.
The solutions of the compounds to be tested were adjusted to pH 5.0, and administered into the duodenum. The bellys were closed. After 4 hours, the animals were slaughtered by anesthesia, and the gastric juice was collected.
The volume of the gastric juice was measured and titrated by N/50 NaOH solution with Topfer indicator and phenolphthalein indicator, to determine the free acid output the total acid output, respectively.
The compounds to be tested were administered into the duodenum immediately after ligaturing the pylorus.
The medicine solution was adjusted to pH 5.0 with N--NaOH solution.

[2] = tested on: Ligature Ulcer of the Pylorus; experiment: Effect on Ligature Ulcer of the Pylorus; assay type: in vivo, male rats of SD strain; details: rat, 300 mg/Kg, into the duodenum, 17 hours
Method: as §1
According to the method by H. Shay et al. [Gastroenterology 5, 43 (1945)], male rats (weighing about 320 g) of SD strain were fasted for 24 hours, and then incised the belly under the ether rausch anesthesia, and finally ligatured the pyloruses. The solution of compounds to be tested were adjusted to pH 5.0, and administered into the duodenum. The bellys were closed. After subsequent 17 hours, the animals were slaughtered by the anesthesia, and their stomaches were extirpated. More particularly, the stomaches were incised along the greater curvature. The ulcer generated at forestomach was ranged as shown in the following. The total of the ranking was named as the ulcer index.
Greater than 1 mm, but not greater
Greater than 3 mm, but not greater
Greater than 5 mm, but not greater

[3] = tested on: Immersive Stress-induced Ulcer; experiment: Inhibitory Effects on the Immersive Stress-induced Ulcer; assay type: in vivo, female rats of SD strain; details: rat, oral; for Percentage of inhibition (ulcer index): vs control; for Ulcer index: control 80.4 ± 3.5
Method: as §1
According to the method by K. Takagi et al. [Jap. J. Pharmacol. 18, 9 )1968)], female rats (weighing about 160 g) of SD strain were put in a cage made of wire gauze for restraint, dipped in a water bath at the temperature of 23° C. so as to cover the lower end of their breast bones, and allowed to stand for 20 hours. The animals were then slaughtered by the anesthesia, and their stomaches were extirpated. The stomaches were inflated with 10 ml of physiological saline water, and dipped in 0.5% neutral formalin solution for about 5 minutes according to the method by D. A. Brodie et al [Gastroenterology 38, 354-360 (1960)]. The stomaches were then incised along the greater curvature. The length of each ulcer (erosion) generated at adeno-stomach was measured. The total of said lengthes were assigned as the ulcer index.
The compounds to be tested were orally administered prior to the immersion.

[4] = tested on: Cold-restraint Stress Induced Ulcer; experiment: Inhibitory Effects on Cold-restraint Stress Induced Ulcer; assay type: in vivo, female rats of SD strain; details: rat, oral; for Percentage of inhibition (ulcer index) / Ulcer index: 30 minutes prior to stress; for Percentage of inhibition (ulcer index): vs control, hydrobromide; for Ulcer index: control 14.8 ± 1.7
Method: as §1
This experiment was effected by referring to the method by S. Dai et al. [Eur. J. Pharmaco. 26, 15-21 (1974)] and the method by M. M. Goldenberg et al. [Am. J. Dic. Dis 19, 4, 353-360 (1974)].
Female rats of SD strain (weighing about 180 g) were restrained in a cage made of wire gauze, and the cage was allowed to stand in a room at the low temperature at 4° C. for two hours. After subsequent two hours, the animals were slaughtered. The stomaches were extirpated. Thereafter, the subsequent procedure was carried out in accordance with the pharmacological experiment 3.
The compounds to be tested were orally administered 30 minutes prior to exposure of the stress.

[5] = tested on: Indomethacin-induced Ulcer; experiment: Effects on Indomethacin-induced Ulcer; assay type: in vivo, Wister strain male rats; details: rat, oral, 30 minutes prior to Indomethacin 40 mg/Kg; for Percentage of inhibition (ulcer index): vs control; for Ulcer index: control 9.30 ± 3.09; for Percentage of Incidence of Ulcer: control 75
Method: as §1
Wister strain male rats (weighing about 230 g) were subjected to the fast for 24 hours. 40 mg/Kg of the Indomethacin were orally administered, respectively. After 4 hours from the administration, the animals were slaughtered and their stomaches were extirpated. The subsequent procedures were carried out in accordance with the pharmacological experiment 3.
The compounds to be tested were orally administered 30 minutes prior to the administration of Indomethacin.

With `CSc1nc(N)c2c(C)coc2n1` [B, 2-Methylmercapto-4-amino-5-methyl-furo[2, 3d]pyrimidine hydrobromide] the “Amount of gastric juice Vol.” value [1] was 0.51 ± 0.09 (ml)/100g B.W, the “Free Acid Output” value [1] was 16.5 ± 5.5 μEq/100g B.W and the “Total Acid Output” value [1] was 37.8 ± 5.6 μEq/100g B.W. For the same compound, the “suppression of the amount of the gastric juice” value [1] was “over 54%”, the “suppression of the free acid output” value [1] was “over 69%” and the “suppression of the total acid output” value [1] was “over 57%”.
For `C=CCSc1nc(N)c2c(C)coc2n1` [C, 2-Allylmercapto-4-amino-5-methyl-furo[2, 3d]pyrimidine], the “Amount of gastric juice Vol.” value [1] was 0.49 ± 0.11 (ml)/100g B.W, the “Free Acid Output” value [1] was 18.2 ± 7.1 μEq/100g B.W and the “Total Acid Output” value [1] was 33.1 ± 7.6 μEq/100g B.W. For the same compound, the “suppression of the amount of the gastric juice” value [1] was “over 54%”, the “suppression of the free acid output” value [1] was “over 69%” and the “suppression of the total acid output” value [1] was “over 57%”.
`CCSc1nc(N)c2c(C)coc2n1` [Compound A, 2-Ethylmercapto-4-amino-5-methyl-furo[2, 3d]pyrimidine hydrobromide] was tested, and the “Amount of gastric juice Vol.” value [1] was 0.81 ± 0.15 (ml)/100g B.W, the “Free Acid Output” value [1] was 41.0 ± 16.6 μEq/100g B.W and the “Total Acid Output” value [1] was 65.8 ± 20.4 μEq/100g B.W. The “suppression of the amount of the gastric juice” value [1] was “over 54%”, the “suppression of the free acid output” value [1] was “over 69%” and the “suppression of the total acid output” value [1] was “over 57%”. For the same compound, the “Percentage of inhibition (ulcer index)” value ([2]; vs control) was 100%, the Ulcer index ([2]; control 54 ± 14) was 0 ± 0 mm and the “Percentage of inhibition (ulcer index)” value ([3]; 150 mg/Kg) was 21.0%. The Ulcer index ([3]; 150 mg/Kg) was 63.5 ± 6.5 mm, the “Percentage of inhibition (ulcer index)” value ([3]; 300 mg/Kg) was 38.7% and the Ulcer index ([3]; 300 mg/Kg) was 49.3 ± 3.4 mm. The “dose dependence of ulcer inhibition” value ([3]; 150 and 300 mg/Kg) was “dose dependent”, the “Percentage of inhibition (ulcer index)” value ([4]; 50 mg/Kg, 50 mg/kg) was 78.4% and 78% and the Ulcer index ([4]; 50 mg/Kg) was 3.2 ± 1.0 mm. For the same compound, the “Percentage of inhibition (ulcer index)” value ([4]; 100 mg/Kg, 100 mg/kg) was 85.8% and 86%, the Ulcer index ([4]; 100 mg/Kg) was 2.1 ± 0.6 mm and the “dose dependence of ulcer inhibition” value ([4]; 50 and 100 mg/Kg) was “dose dependent”. The “Percentage of inhibition (ulcer index)” value ([5]; 25 mg/Kg) was 82%, the “Ulcer index” value ([5]; 25 mg/Kg) was 1.67 ± 1.00 mm and the “Percentage of Incidence of Ulcer” value ([5]; 25 mg/Kg) was 38%. For the same compound, the “Percentage of inhibition (ulcer index)” value ([5]; 50 mg/Kg) was 100%, the “Ulcer index” value ([5]; 50 mg/Kg) was 0 ± 0 mm and the “Percentage of Incidence of Ulcer” value ([5]; 50 mg/Kg) was 0%. For the same compound, the “Percentage of inhibition (ulcer index)” value ([5]; 100 mg/Kg) was 98%, the “Ulcer index” value ([5]; 100 mg/Kg) was 0.20 ± 0.19 mm and the “Percentage of Incidence of Ulcer” value ([5]; 100 mg/Kg) was 13%.

Reference: US4180577A, “Furo[2, 3d]pyrimidine derivatives and anti-ulcer containing the same” (Eisai Co., Ltd., priority 1974, dated 1979)
